Data from publication PMC3919815, “Anti-Tumor Effects of Novel 5-O-Acyl Plumbagins Based on the Inhibition of Mammalian DNA Replicative Polymerase Activity” (PLoS ONE, 2014).
One block for each compound: values may come before it.

Key:
[1] = target: T1, Human pol κ (Homo sapiens, UniProt Q9UBT6); assay: DNA polymerase activity inhibition; assay type: biochemical; conditions: 10 µM compound; Fig. 4
T1 construct: A truncated form of pol κ (residues 1–560) with 6× His-tags attached at the C-terminus; 6× His (C); made in house; host or cells: E. coli
T1 sequence (Q9UBT6 1-560): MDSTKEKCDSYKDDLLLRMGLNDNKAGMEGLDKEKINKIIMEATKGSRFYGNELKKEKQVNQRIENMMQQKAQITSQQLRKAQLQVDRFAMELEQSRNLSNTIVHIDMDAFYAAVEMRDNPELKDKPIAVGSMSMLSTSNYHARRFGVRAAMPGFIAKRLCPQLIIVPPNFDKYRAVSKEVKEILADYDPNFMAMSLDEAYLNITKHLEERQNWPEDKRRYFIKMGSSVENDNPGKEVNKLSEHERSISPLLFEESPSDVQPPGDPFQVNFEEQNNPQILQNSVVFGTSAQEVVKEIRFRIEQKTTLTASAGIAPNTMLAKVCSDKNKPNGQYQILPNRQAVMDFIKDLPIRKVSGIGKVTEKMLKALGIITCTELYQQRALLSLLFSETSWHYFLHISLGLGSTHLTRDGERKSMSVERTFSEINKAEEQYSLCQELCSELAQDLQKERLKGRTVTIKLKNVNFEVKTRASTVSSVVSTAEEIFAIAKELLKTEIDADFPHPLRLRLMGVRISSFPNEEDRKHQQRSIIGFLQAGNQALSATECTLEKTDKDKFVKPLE
Source text: (§1) Pol α was purified from calf thymus by immunoaffinity column chromatography as described by Tamai et al.. Recombinant rat pol β was purified from Escherichia coli JMpβ5 as described by Date et al.. The human pol γ catalytic gene was cloned into pFastBac. Histidine-tagged enzyme was expressed using the BACTO-BAC HT Baculovirus Expression System according to the manufacturer's instructions (Life Technologies, Frederick, MD, USA) and purified using ProBound resin (Invitrogen Japan, Tokyo Japan). Human pols δ and ε were purified by nuclear fractionation of human peripheral blood cancer cells (Molt-4) using the second subunit of pol δ and ε-conjugated affinity column chromatography, respectively. A truncated form of human pol η (residues 1–511) tagged with His6 at its C-terminal was expressed in E. coli cells and purified as described by Kusumoto et al.. A recombinant mouse pol ι tagged with His6 at its C-terminal was expressed and purified by Ni–NTA column chromatography. A truncated form of pol κ (residues 1–560) with 6× His-tags attached at the C-terminus was overexpressed in E. coli and purified as described by Ohashi et al.. Recombinant human His-pol λ was overexpressed and purified according to a method described by Shimazaki et al.. Recombinant human His-pol μ was overexpressed in E. coli BL21 and purified using Glutathione Sepharose 4B (GE Healthcare Bio-Science Corp., Piscataway, NJ, USA) column chromatography according to the method for pol λ preparation by Shimazaki et al.. Pol α from a higher plant, cauliflower, was purified from the inflorescence structure according to the methods outlined by Sakaguchi et al.. Recombinant rice (Oryza sativa L. cv. Nipponbare) pol λ tagged with His6 at the C-terminus was expressed in E. coli and purified as described by Uchiyama et al.. Calf TdT, Taq pol, T4 pol, T7 RNA polymerase, and T4 polynucleotide kinase were purchased from Takara Bio Inc. (Kyoto, Japan). The Klenow fragment of pol I from E. coli was purchased from Worthington Biochemical Corp. (Freehold, NJ, USA). Bovine pancreas deoxyribonuclease I was obtained from Stratagene Cloning Systems (La Jolla, CA, USA).
(§2) The reaction mixtures for calf pol α, rat pol β, plant pol α, and prokaryotic pols have been described previously, [35]; those for pol γ as well as pols δ and ε were previously described by Umeda et al. and Ogawa et al., respectively. Those for pols η, ι, and κ were the same as for pol α, and those for pols λ and μ were the same as for pol β. For the pol reactions, poly(dA)/oligo(dT)18 (A/T, 2/1) and dTTP were used as the DNA template-primer substrate and nucleotide (dNTP; 2′-deoxynucleoside-5′-triphosphate) substrate, respectively. For the TdT reactions, oligo(dT)18 (3′-OH) and dTTP were used as the DNA primer substrate and nucleotide substrate, respectively.
(§3) The chemically synthesized 5-O-acyl plumbagins (2a–j) were dissolved in distilled dimethyl sulfoxide (DMSO) to various concentrations and sonicated for 30 s. Subsequently, 4 µL aliquots were mixed with 16 µL of each enzyme (0.05 units) in 50 mM Tris-HCl at pH 7.5, containing 1 mM dithiothreitol, 50% glycerol (by vol), and 0.1 mM ethylenediaminetetraacetic acid and held at 0°C for 10 min. These inhibitor-enzyme mixtures in 8 µL volumes were next added to 16 µL of enzyme standard reaction mixture and incubated at 37°C for 60 min, except for Taq pol, which was incubated at 74°C for 60 min. Activity without inhibitor was considered 100%, and the relative activity was determined for each inhibitor concentration. One unit of pol activity was defined as the amount of each enzyme that catalyzed the incorporation of 1 nmol dTTP into synthetic DNA template primers in 60 min, at 37°C, and under standard reaction conditions, [35].

[2] = target: T2, Human pol λ (Homo sapiens, UniProt Q9UGP5); assay: DNA polymerase activity inhibition; assay type: biochemical; conditions: 10 µM compound; Fig. 4
T2 construct: His tag; made in house
T2 sequence (Q9UGP5 1-575): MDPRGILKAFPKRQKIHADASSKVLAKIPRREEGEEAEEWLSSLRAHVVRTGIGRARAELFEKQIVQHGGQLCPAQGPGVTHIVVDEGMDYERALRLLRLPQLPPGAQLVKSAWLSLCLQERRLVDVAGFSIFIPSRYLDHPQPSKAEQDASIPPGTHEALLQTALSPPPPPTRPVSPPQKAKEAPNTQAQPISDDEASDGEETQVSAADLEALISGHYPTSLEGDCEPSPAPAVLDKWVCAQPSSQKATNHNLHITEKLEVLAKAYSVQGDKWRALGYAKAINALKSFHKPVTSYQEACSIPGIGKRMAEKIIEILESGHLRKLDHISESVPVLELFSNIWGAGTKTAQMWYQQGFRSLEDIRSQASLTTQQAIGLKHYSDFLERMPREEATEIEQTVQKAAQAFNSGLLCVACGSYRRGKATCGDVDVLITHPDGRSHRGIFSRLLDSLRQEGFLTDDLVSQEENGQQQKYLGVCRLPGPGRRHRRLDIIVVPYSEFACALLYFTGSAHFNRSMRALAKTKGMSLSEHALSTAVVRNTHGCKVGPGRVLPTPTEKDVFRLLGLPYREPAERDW
Source text: as §1, §2, §3

[3] = target: T3, Calf pol α (Bos taurus, UniProt A0AAA9TD94); assay: DNA polymerase activity inhibition; assay type: biochemical; conditions: 10 µM compound; Fig. 4
T3 construct: from tissue; host or cells: calf thymus
T3 sequence (A0AAA9TD94 1-1441): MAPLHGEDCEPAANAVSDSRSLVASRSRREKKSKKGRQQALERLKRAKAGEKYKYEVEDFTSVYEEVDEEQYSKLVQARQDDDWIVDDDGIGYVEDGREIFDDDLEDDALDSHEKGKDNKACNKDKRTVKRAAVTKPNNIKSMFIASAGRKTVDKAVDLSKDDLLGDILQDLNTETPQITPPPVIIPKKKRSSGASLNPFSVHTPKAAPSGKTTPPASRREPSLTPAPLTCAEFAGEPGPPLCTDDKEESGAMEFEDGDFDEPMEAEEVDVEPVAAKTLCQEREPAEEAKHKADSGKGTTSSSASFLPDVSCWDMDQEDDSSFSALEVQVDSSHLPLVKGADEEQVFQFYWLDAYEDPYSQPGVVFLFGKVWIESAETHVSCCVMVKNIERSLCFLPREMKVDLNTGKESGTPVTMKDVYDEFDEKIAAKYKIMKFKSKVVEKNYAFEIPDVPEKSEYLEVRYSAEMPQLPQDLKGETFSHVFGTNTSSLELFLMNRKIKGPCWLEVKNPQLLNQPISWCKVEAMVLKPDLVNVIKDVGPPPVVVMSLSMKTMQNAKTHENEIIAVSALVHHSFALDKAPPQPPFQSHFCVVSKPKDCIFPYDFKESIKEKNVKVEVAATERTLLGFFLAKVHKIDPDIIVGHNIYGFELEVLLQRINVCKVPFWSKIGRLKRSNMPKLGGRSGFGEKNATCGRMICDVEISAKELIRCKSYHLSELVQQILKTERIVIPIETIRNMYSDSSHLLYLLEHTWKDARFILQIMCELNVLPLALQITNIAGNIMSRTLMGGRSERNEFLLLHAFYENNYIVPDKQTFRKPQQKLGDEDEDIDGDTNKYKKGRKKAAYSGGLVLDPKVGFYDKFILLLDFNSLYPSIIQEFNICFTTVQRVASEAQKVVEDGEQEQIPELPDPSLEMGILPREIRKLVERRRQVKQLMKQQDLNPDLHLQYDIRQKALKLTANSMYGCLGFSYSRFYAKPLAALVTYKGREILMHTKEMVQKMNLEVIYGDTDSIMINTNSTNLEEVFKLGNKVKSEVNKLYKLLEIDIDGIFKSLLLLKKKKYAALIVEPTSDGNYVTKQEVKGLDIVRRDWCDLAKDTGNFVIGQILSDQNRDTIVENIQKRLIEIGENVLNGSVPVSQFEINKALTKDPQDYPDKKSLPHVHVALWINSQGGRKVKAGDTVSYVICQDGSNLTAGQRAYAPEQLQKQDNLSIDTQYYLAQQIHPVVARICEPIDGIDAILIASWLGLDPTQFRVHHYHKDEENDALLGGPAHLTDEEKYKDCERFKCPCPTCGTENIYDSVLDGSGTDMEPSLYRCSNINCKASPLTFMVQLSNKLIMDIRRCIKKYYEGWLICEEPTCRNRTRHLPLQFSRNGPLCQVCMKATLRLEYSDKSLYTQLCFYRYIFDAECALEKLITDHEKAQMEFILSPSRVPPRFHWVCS
Source text: as §1, §2, §3

[4] = tested on: HCT116 (colon cancer); assay: Cancer cell viability, MTT assay; assay type: cell-based, human; conditions: 48 h, MTT; for suppression of cell proliferation: Fig. 5
Experimental: The following human cancer cell lines were obtained from the American Type Culture Collection (Manassas, VA, USA): lung (A549), prostate (DU145 and PC3), colon (HCT116 and HT-29), cervix (HeLa), hepatocellular liver (HepG2), breast (MCF-7), and pancreatic cancer (PANC-1). These cells were cultured in RPMI 1640 medium supplemented with 10% fetal bovine serum, penicillin (100 units/mL), streptomycin (100 µg/mL), and 1.6 mg/mL NaHCO3 at 37°C in a humid atmosphere of 5% CO2/95% air. For the cell viability assay, cells were seeded at 1×10^3 cells/well in a 96-well microplate with various concentrations of the test compounds, and incubated for 48 h. MTT (3-(4,5-dimethylthiazol-2-yl)-2,5-diphenyl tetrazolium bromide) solution was added to a final concentration 0.6 mg/mL in Milli-Q purified water for 2 h, after which time the medium was discarded and the cells lysed in DMSO. A540 was then measured in a microplate reader (Model 680, Bio-Rad Laboratories, Hercules, CA, USA).

[5] = tested on: HT-29 solid tumors; assay: In vivo anti-tumor assay; design: species or system nude mice; conditions: at 40 days; 5 mg/kg subcutaneously in PBS, versus PBS control; n = 6
Source text: Male BALB/c nu/nu mice at 5 week of age (18 g) were purchased from Japan SLC, Inc. (Shizuoka, Japan). Mice receiving standard laboratory chow and water ad libitum were acclimatized for 1 week before inoculation with cancer cells. For in vivo experiments, human colon HT-29 cells (1×10^7 cells/mouse) were subcutaneously injected into nude mice. Mice bearing solid tumors that had grown to approximately 100 mm^3 in volume (tumor volume = length×width×height) at 12 days after implantation were used for the assessment of anti-tumor effects. They were divided randomly into five groups (n = 6/group). One of the five groups was a control group injected with 0.1 mL of phosphate buffered saline (PBS) alone, and other groups were injected with vitamin K3 (3), juglone (4), C18:1-acyl juglone (5f), and C18:1-acyl plumbagin (2f) dissolved in PBS at a dose of 5 mg/kg. The above administrations all took place between days 12–39 subsequent to implantation. All mice were injected subcutaneously 14 times at […] with the compound and PBS alone (control). Tumor growth was measured at 1-day intervals for 40 days after implantation. At the end of the in vivo anti-tumor assay, some mice treated with the test compounds and PBS were independently examined to observe major organs such as lung, heart, spleen, stomach, liver, pancreas, kidney, intestine, and brain.

[6] = Stability under basic conditions (Triton B, UV-vis); assay type: physicochemical; conditions: 1 equivalent Triton B in 1,4-dioxane and MeOH, 1.1×10^−3 M, 25°C
Experimental: A 2.2×10^−2 M solution of Triton B in MeOH was added to a 2.2×10^−2 M solution of each sample in 1,4-dioxane. Then, the mixture was diluted with 1,4-dioxane to a concentration of 1.1×10^−3 M. Then, the stability of each compound was monitored by UV-vis spectroscopy. UV-vis spectra were measured at 25°C on a UV-vis spectrophotometer (JASCO V-650, Tokyo, Japan). For comparison, UV-vis spectra of 1.1×10^−3 M solution of C18:1-acyl plumbagin (2f), and C18:1-acyl juglone (5f) in 1,4-dioxane and MeOH (19/1, v/v) were measured.

[7] = tested on: calf thymus dsDNA; assay: Thermal transition of dsDNA; assay type: binding; conditions: 15 µM compound (positive control); 6 µg/mL DNA, 0.1 M Na-phosphate buffer pH 7.0
Experimental: Thermal transition profiles of dsDNA to single-stranded DNA with or without test compound were obtained with a spectrophotometer (UV-2500; Shimadzu Corp., Kyoto, Japan) equipped with a thermoelectric cell holder according to previous methods. Calf thymus DNA (6 µg/mL) was dissolved in 0.1 M sodium phosphate buffer (pH 7.0) containing 1% DMSO. The solution temperature was equilibrated to 75°C for 10 min, and then increased by 1°C at 2-min intervals for each measurement point. Any change in the absorbance (260 nm) of the compound itself at each temperature point was automatically subtracted from that of DNA plus the compound in the spectrophotometer.

[8] = tested on: pol α; design: method as in PMID 10942777; conditions: cited from earlier work
[9] = tested on: pol δ; design: method as in PMID 10942777; conditions: cited from earlier work
[10] = tested on: pol ε; design: method as in PMID 10942777; conditions: cited from earlier work

SMILES: CC(=O)Oc1cccc2c1C(=O)C=C(C)C2=O [2a, 5-O-acetoxy-2-methyl-1,4-naphthoquinone]
inhibition of pol κ relative activity (in words) [1]: hardly inhibited | inhibition of pol λ relative activity (in words) [2]: hardly inhibited | melting point: 118 to 124 °C

melting point: 67 to 70 °C
SMILES: CCCCCCCCCCCCCCCCCC(=O)Oc1cccc2c1C(=O)C=C(C)C2=O [2e, 5-O-octadecanoyloxy-2-methyl-1,4-naphthoquinone]
inhibition of pol α relative activity (in words) [3]: did not inhibit

SMILES: CCCCC/C=C\C/C=C\CCCCCCCC(=O)Oc1cccc2c1C(=O)C=C(C)C2=O [2g, 5-O-linoleoyloxy-2-methyl-1,4-naphthoquinone]
cell proliferation rate ([4]; 10 µM, control = 100%): < 60%

inhibition of pol κ relative activity (in words) [1]: strongest inhibitor | inhibition of pol λ relative activity (in words) [2]: strongest inhibitor
SMILES: CC/C=C\C/C=C\C/C=C\C/C=C\C/C=C\C/C=C\CCC(=O)Oc1cccc2c1C(=O)C=C(C)C2=O [2j, 5-O-docosahexaenoyloxy-2-methyl-1,4-naphthoquinone]

SMILES: CCCCCCCC/C=C\CCCCCCCC(=O)Oc1cccc2c1C(=O)C=CC2=O [5f, reference compound]
decreased rates of tumor volume [5]: 10.3% | stability under basic conditions (UV spectra) [6]: readily decomposes under basic conditions

SMILES: CC[n+]1c(-c2ccccc2)c2cc(N)ccc2c2ccc(N)cc21 [EtBr, ethidium bromide]
thermal transition (Tm) of dsDNA from 75 to 90°C [7]: an obvious thermal transition was observed

SMILES: C[C@@]1(CO)[C@H](O)CC[C@@]2(C)[C@H]1CC[C@H]1C[C@@H]3C[C@@]12CC[C@]3(O)CO [aphidicolin]
IC50 [8]: 20 µM | IC50 [9]: 13 µM | IC50 [10]: 16 µM

SMILES: CC1=CC(=O)c2c(O)cccc2C1=O [compound 1, 5-hydroxy-2-methyl-1,4-naphthoquinone, reference compound]
suppression of cell proliferation ([4]; 10 µM): did not | suppression of cell proliferation ([4]; 100 µM): approximately 50%

SMILES: CC1=CC(=O)c2ccccc2C1=O [compound 3, 2-methyl-1,4-naphthoquinone]
decreased rates of tumor volume [5]: 7.0%

SMILES: O=C1C=CC(=O)c2c(O)cccc21 [compound 4, 5-hydroxy-1,4-naphthoquinone]
decreased rates of tumor volume [5]: 9.2%
